Source: article PMC2362735, “New semisynthetic vinca alkaloids: chemical, biochemical and cellular studies” (British Journal of Cancer, 1999)

Tests used:
[1] = test system: Human neuroblastoma cell line (SH-SY5Y); assay: Microculture tetrazolium assay (MTA), cytotoxicity; conditions: read-out: Cytotoxicity MTA IC50, 4-day treatment, MTT
Text: The numerous antimitotic drugs already developed and therapeu- tically used for a large number of pathologies belong to different classes based on their chemical structure and other distinctive features. Antimitotic drugs usually target the tubulin/microtubule network of the cytoskeleton that is formed by assembly of cyto- plasmic tubulin dimers. The stability of the different microtubular structures varies considerably; some of their functions depend on their lability. The lability is augmented by the extreme sensitivity to various drugs. Several synthetic and natural compounds interact specifically with tubulin and/or microtubule, fundamentally destroying its dynamic character and leading to cell death. […] Because of their extensive clinical use, it is important to synthesize additional agents having at least the same biological activity. […] Nevertheless, it is unclear yet how the anti-calmodulin activity of these drugs is related to their desired and undesired pharmacological effects. […] The synthesis of the KAR derivatives are presented. […] Taxol, GTP and trifluoperazine were purchased from Sigma. All organic reagents for synthesis of the new compounds were obtained from Aldrich and were of the highest grade. All other chemicals were reagent grade commercial preparations. […] Tubulin was stored in 1 M sucrose, 10 mM sodium phosphate buffer, 0.5 mM magnesium chloride and 0.1 mM GTP, pH 7.0, at -80C and dialysed against the appropriate buffer before use. […] PFK, aldolase and glycerol-3-phosphate dehydrogenase- triosephosphate isomerase purified from rabbit skeletal muscle were purchased in ammonium sulphate suspensions from Sigma or Boehringer. The enzyme suspensions were centrifuged at 10 000g for 5 min. The pellets were suspended in the appropriate buffer, then the enzymes were gel filtered or dialysed in the same buffer to remove ammonium sulphate. […] (Figure 1B; R1 , CH3; R2 , CH2 CH2 Cl). […] After 2 h incubation at room temperature, 200 ml dried toluene was added to the reaction mixture. […] The mixture was stirred for 30 min. After separation of the organic phase, it was washed with water (3 x 30 ml) and dried with potassium sulphate and evaporated on a water bath of 35-40C at 20-27 hPa. The resulting material was chromatographed on silica gel (500 g, bead size of 0.040- 0.063 mm) column (30 mm x 500 mm) using ethyl acetate/ethanol (9:1) mixture as eluent. […] The mixture was kept for 4 h at room temperature and then evaporated on a water bath at 40C under a vacuum of 80 hPa to a final volume of 5-6 ml. […] (Figure 1B, R1 , CHO; R2 , CH2 CH2 Cl). […] Synthesis of KAR-4 [3-allyl-2,4-dioxo-3,5-spiro-oxazolidino- 4-deacetoxy-vinblastine] (Figure 1B; R1 , CH3; R2 , CH2 CH=CH2 ). […] NMR measurements were carried out on a Varian Unity plus-500 instrument (500 MHz for 1H and 125 MHz for 13C) in DMSO. Chemical shifts were determined relative to dTMS = 0.00 p.p.m. 1H and 13C signal assignments were verified by a concerted use of two-dimensional 1H-1H and 1H-13C shift correlation methods (DQFCOSY, HSQC, HMBC) and NOESY experiments. The gradient-enhanced DQFCOSY, HSQC, HMBC and NOESY experiments were recorded by using the standard spectrometer software package. A mixing time of tmix = 0.5 s was used for the NOESY experiments.

[2] = target: T1, calmodulin (Bos taurus, UniProt P62157); assay: Anti-calmodulin activity assay: calmodulin-induced PFK inactivation; assay type: biochemical, bovine; conditions: drug 20 M
T1 construct: Calmodulin from bovine brain was purified to homogeneity using Phenyl-Sepharose (Pharmacia) chromatography; from tissue; host or cells: bovine brain
Text: The numerous antimitotic drugs already developed and therapeu- tically used for a large number of pathologies belong to different classes based on their chemical structure and other distinctive features. Antimitotic drugs usually target the tubulin/microtubule network of the cytoskeleton that is formed by assembly of cyto- plasmic tubulin dimers. The stability of the different microtubular structures varies considerably; some of their functions depend on their lability. The lability is augmented by the extreme sensitivity to various drugs. Several synthetic and natural compounds interact specifically with tubulin and/or microtubule, fundamentally destroying its dynamic character and leading to cell death. […] Because of their extensive clinical use, it is important to synthesize additional agents having at least the same biological activity. […] Nevertheless, it is unclear yet how the anti-calmodulin activity of these drugs is related to their desired and undesired pharmacological effects. […] The synthesis of the KAR derivatives are presented. […] Taxol, GTP and trifluoperazine were purchased from Sigma. All organic reagents for synthesis of the new compounds were obtained from Aldrich and were of the highest grade. All other chemicals were reagent grade commercial preparations. […] Tubulin was stored in 1 M sucrose, 10 mM sodium phosphate buffer, 0.5 mM magnesium chloride and 0.1 mM GTP, pH 7.0, at -80C and dialysed against the appropriate buffer before use. […] PFK, aldolase and glycerol-3-phosphate dehydrogenase- triosephosphate isomerase purified from rabbit skeletal muscle were purchased in ammonium sulphate suspensions from Sigma or Boehringer. The enzyme suspensions were centrifuged at 10 000g for 5 min. The pellets were suspended in the appropriate buffer, then the enzymes were gel filtered or dialysed in the same buffer to remove ammonium sulphate. […] (Figure 1B; R1 , CH3; R2 , CH2 CH2 Cl). […] After 2 h incubation at room temperature, 200 ml dried toluene was added to the reaction mixture. […] The mixture was stirred for 30 min. After separation of the organic phase, it was washed with water (3 x 30 ml) and dried with potassium sulphate and evaporated on a water bath of 35-40C at 20-27 hPa. The resulting material was chromatographed on silica gel (500 g, bead size of 0.040- 0.063 mm) column (30 mm x 500 mm) using ethyl acetate/ethanol (9:1) mixture as eluent. […] The mixture was kept for 4 h at room temperature and then evaporated on a water bath at 40C under a vacuum of 80 hPa to a final volume of 5-6 ml. […] (Figure 1B, R1 , CHO; R2 , CH2 CH2 Cl). […] Synthesis of KAR-4 [3-allyl-2,4-dioxo-3,5-spiro-oxazolidino- 4-deacetoxy-vinblastine] (Figure 1B; R1 , CH3; R2 , CH2 CH=CH2 ). […] NMR measurements were carried out on a Varian Unity plus-500 instrument (500 MHz for 1H and 125 MHz for 13C) in DMSO. Chemical shifts were determined relative to dTMS = 0.00 p.p.m. 1H and 13C signal assignments were verified by a concerted use of two-dimensional 1H-1H and 1H-13C shift correlation methods (DQFCOSY, HSQC, HMBC) and NOESY experiments. The gradient-enhanced DQFCOSY, HSQC, HMBC and NOESY experiments were recorded by using the standard spectrometer software package. A mixing time of tmix = 0.5 s was used for the NOESY experiments. […] Mass spectrum was recorded on a Kratos MS 80 instrument using FAB.

[3] = test system: mouse leukaemia P388; parameters: method as in Orosz et al, 1997a; conditions: ref Orosz et al, 1997a, cited from earlier work

CC[C@]1(O)C[C@@H]2CN(CCc3c([nH]c4ccccc34)[C@@](C(=O)OC)(c3cc4c(cc3OC)N(C)[C@@H]3[C@]45CCN4CC=C[C@@](CC)(C[C@@]36OC(=O)N(CCCl)C6=O)[C@H]45)C2)C1 [KAR-2, 3′-(β-chloroethyl)-2′,4′-dioxo-3,5′-spiro-oxazolidino-4-deacetoxy-vinblastine]
IC50 [1]: 310 nM
Effect on calmodulin induced PFK inactivation: Activity (U mg-1) ([2]; PFK 1.2 M protomers, calmodulin 3 M, 60 min, without calmodulin 66.6 U mg-1, with calmodulin 8.0 U mg-1): 11.1 U mg-1
anti-calmodulin activity in the PFK assay (in words) [2]: does not display anti-calmodulin activity
Anti-calmodulin activity: Efficiency (%) ([2]; calculated from the activity data (100% = PFK without calmodulin, 0% = PFK with calmodulin)): 5%
T/C ([3]; P388, 1 mg kg-1, eightfold treatment): 174%
neurotoxic side-effects (e.g. paralysis of bladder or lower extremities) ([3]; P388 in vivo tests): did not induce neurotoxic side-effects
